Literature values, collected in PubChem BioAssay AID1259409 (Chemical Carcinogenesis Research Information System (CCRIS), 2018).
Where “and” joins values, the source holds several entries; their conditions need not be identical. Identical values can stand only once.

Test system: rodent chemically induced tumor inhibition, incidence and multiplicity
Assay: CCRIS tumor inhibitor studies
Conditions: Dose [Inhibitor]: 0

Q: With NCC[Se][Se]CCN as the compound, how does the “tumour outcome (control, treated, inhibition, significance)” value (Carcinogen: 7,12-DIMETHYLBENZ[A]ANTHRACENE, 57-97-6, 0.000025 MOL/KG DIET BEGINNING 2 WK PRIOR TO CARCINOGEN AND CONTINUED FOR STUDY DURATION (STUDY DURATION: 25 WK), Route [Inhibitor]: ORAL, Species: RAT, Strain/Sex: CD-1/FEMALE, Target Tissue: Type of Lesion: MAMMARY GLAND: ADENOCARCINOMA, Dose [Carcinogen]: 10 MG ONCE, Promoter: NONE USED) read?
A: 18/25 (72%), 14/25 (56%), 22%, not significant

Q: What about the “tumour outcome (control, treated, inhibition, significance)” value (Carcinogen: 7,12-DIMETHYLBENZ[A]ANTHRACENE, 57-97-6, 0.00004 MOL/KG DIET BEGINNING 2 WK PRIOR TO CARCINOGEN AND CONTINUED FOR STUDY DURATION (STUDY DURATION: 25 WK), Route [Inhibitor]: ORAL, Species: RAT, Strain/Sex: CD-1/FEMALE, Target Tissue: Type of Lesion: MAMMARY GLAND: ADENOCARCINOMA, Dose [Carcinogen]: 10 MG ONCE, Promoter: NONE USED) of the same compound?
A: 18/25 (72%), 11/25 (44%), 39%, p<0.05

Q: With CN1C(=O)NC(c2ccccc2)(c2ccccc2)C1=O as the compound, how does the “tumour outcome (control, treated, inhibition, significance)” value (Carcinogen: 7,12-DIEMTHYLBENZ[A]ANTHRACENE, 57-97-6, 200 UG/D IN ETHANOL/DRINKING WATER SOLUTION (1:500 ML) ADMINISTERED TO PINEALECTOMIZED RATS BEGINNING 1 WK POST CARCI, Route [Inhibitor]: ORAL, Species: RAT, Strain/Sex: SPRAGUE-DAWLEY/FEMALE, Target Tissue: Type of Lesion: MAMMARY GLAND: TUMOR, Dose [Carcinogen]: 10 MG/ML SESAME OIL ADMINISTERED ONCE AT 55 D OF AGE, Promoter: NONE USED) read?
A: 80%, 36%, 55%, p<0.05

Q: What about the “tumour outcome (control, treated, inhibition, significance)” value (Carcinogen: 7,12-DIMETHYLBENZ[A]ANTHRACENE, 57-97-6, 200 UG/D ETHANOL/DRINKING WATER SOLUTION (1:500 ML) ADMINISTERED TO INTACT RATS BEGINNING 1 WK POST CARCINOGEN DOSE A, Route [Inhibitor]: ORAL, Species: RAT, Strain/Sex: SPRAGUE-DAWLEY/FEMALE, Target Tissue: Type of Lesion: MAMMARY GLAND: TUMOR, Dose [Carcinogen]: 10 MG/ML SESAME OIL ADMINISTERED ONCE AT 55 D OF AGE, Promoter: NONE USED) of the same compound?
A: 88%, 24%, 73%, p<0.005

Q: And the “tumour outcome (control, treated, inhibition, significance)” value (Carcinogen: 7,12-DIMETHYLBENZ[A]ANTHRACENE, 57-97-6, 200 UG/D IN ETHANOL/DRINKING WATER SOLUTION (1:500 ML) ADMINISTERED TO INTACT RATS BEGINNING 1 WK POST CARCINOGEN DOS, Route [Inhibitor]: ORAL, Species: RAT, Strain/Sex: SPRAGUE-DAWLEY/FEMALE, Target Tissue: Type of Lesion: MAMMARY GLAND: TUMOR, Dose [Carcinogen]: 10 MG/ML SESAME OIL ADMINISTERED ONCE AT 55 D OF AGE, Promoter: NONE USED)?
A: 70%, 16%, 77%, p<0.005

Q: And the “tumour outcome (control, treated, inhibition, significance)” value (Carcinogen: 7,12-DIMETHYLBENZ[A]ANTHRACENE, 57-97-6, 200 UG/D IN ETHANOL/DRINKING WATER SOLUTION (1:500 ML) ADMINISTERED TO INTACT RATS BEGINNING 1 WK PRIOR TO CARCINOGEN, Route [Inhibitor]: ORAL, Species: RAT, Strain/Sex: SPRAGUE-DAWLEY/FEMALE, Target Tissue: Type of Lesion: MAMMARY GLAND: TUMOR, Dose [Carcinogen]: 10 MG/ML SESAME OIL ADMINISTERED ONCE AT 55 D OF AGE, Promoter: NONE USED)?
A: 70%, 27%, 61%, p<0.05 and 88%, 38%, 57%, p<0.05

Q: What about the “tumour outcome (control, treated, inhibition, significance)” value (Carcinogen: 7,12-DIMETHYLBENZ[A]ANTHRACENE, 57-97-6, 200 UG/D IN ETHANOL/DRINKING WATER SOLUTION (1:500 ML) ADMINISTERED TO PINEALECTOMIZED RATS BEGINNING 1 WK POST CARCI, Route [Inhibitor]: ORAL, Species: RAT, Strain/Sex: SPRAGUE-DAWLEY/FEMALE, Target Tissue: Type of Lesion: MAMMARY GLAND: TUMOR, Dose [Carcinogen]: 10 MG/ML SESAME OIL ADMINISTERED ONCE AT 55 D OF AGE, Promoter: NONE USED) of the same compound?
A: 90%, 31%, 66%, p<0.005

Q: And the “tumour outcome (control, treated, inhibition, significance)” value (Carcinogen: 7,12-DIMETHYLBENZ[A]ANTHRACENE, 57-97-6, 200 UG/D IN ETHANOL/DRINKING WATER SOLUTION (1:500 ML) ADMINISTERED TO PINEALECTOMIZED RATS BEGINNING 1 WK PRIOR TO C, Route [Inhibitor]: ORAL, Species: RAT, Strain/Sex: SPRAGUE-DAWLEY/FEMALE, Target Tissue: Type of Lesion: MAMMARY GLAND: TUMOR, Dose [Carcinogen]: 10 MG/ML SESAME OIL ADMINISTERED ONCE AT 55 D OF AGE, Promoter: NONE USED)?
A: 90%, 64%, 29%, not calculated

Q: And the “tumour outcome (control, treated, inhibition, significance)” value (Carcinogen: 7,12-DIMETHYLBENZ[A]ANTHRACENE, 57-97-6, 200 UG/D IN ETHANOL/DRINKING WATER SOLUTION. (1:500 ML) ADMINISTERED TO PINEALECTOMIZED RATS BEGINNING 1 WK PRIOR TO, Route [Inhibitor]: ORAL, Species: RAT, Strain/Sex: SPRAGUE-DAWLEY/FEMALE, Target Tissue: Type of Lesion: MAMMARY GLAND: TUMOR, Dose [Carcinogen]: 10 MG/ML SESAME OIL ADMINISTERED ONCE AT 55 D OF AGE, Promoter: NONE USED)?
A: 80%, 65%, 19%, not calculated

Q: With CC(C)(O)CCC(=O)C(C)(O)C1[C@H](O)C[C@@]2(C)[C@@H]3CC=C4[C@@H](C[C@H](O)[C@@H](O)C4(C)C)[C@]3(C)C(=O)C[C@]12C (some centres not stated) as the compound, how does the “tumour outcome (control, treated, inhibition, significance)” value (Carcinogen: 7,12-DIMETHYLBENZ[A]ANTHRACENE, 57-97-6, 85 NMOL IN 0.1 ML ACETONE APPLIED 1 HR PRIOR TO EACH PROMOTER DOSE 2/WK FOR 20 WK (STUDY DURATION: 21 WK), Route [Inhibitor]: DERMAL, Species: MOUSE, Strain/Sex: ICR/FEMALE, Target Tissue: Type of Lesion: SKIN: PAPILLOMA, Dose [Carcinogen]: 100 UG IN 0.1 ML ACETONE ONCE, Promoter: 12-O-TETRADECANOYLPHORBOL-13-ACETATE, 16561-29-8) read?
A: 100%, 100%, 0%, not significant

Q: Which “tumour outcome (control, treated, inhibition, significance)” value (Carcinogen: N-NITROSOBIS(2-OXOPROPYL)AMINE, 60599-38-4, 500 PPM IN DIET FOR 5 WK DURING CARCINOGEN TREATMENT (STUDY DURATION: 30 WK), Route [Inhibitor]: ORAL, Species: HAMSTER, Strain/Sex: SYRIAN/FEMALE, Target Tissue: Type of Lesion: PANCREAS: ADENOCARCINOMA, Dose [Carcinogen]: 10 MG/KG 1/WK FOR 5 WK, Promoter: NONE USED) does the source give for CN(C)C(=O)COC(=O)Cc1ccc(OC(=O)c2ccc(N=C(N)N)cc2)cc1 here?
A: 24/30 (80%), 18/32 (56%), 30%, p<0.05

Q: For C#CCCc1ccccc1, which “tumour outcome (control, treated, inhibition, significance)” value (Carcinogen: 4-(METHYLNITROSAMINO)-1-(3-PYRIDYL)-1-BUTANONE, 64091-91-4, 5 UMOL IN 0.1 ML CORN OIL ONCE 2 HR PRIOR TO CARCINOGEN DOSE (STUDY DURATION: 16 WK), Route [Inhibitor]: GAVAGE, Species: MOUSE, Strain/Sex: STRAIN-A/FEMALE, Target Tissue: Type of Lesion: LUNG: ADENOMA, Dose [Carcinogen]: 10 UMOL IN 0.1 ML SALINE ONCE, Promoter: NONE USED) is on record?
A: 100%, 60%, 40%, p<0.01
